Data: patent US9447075B2, “Pyridazine derivatives as EAAT2 activators” (The Brigham and Women's Hospital, Inc., priority 2011, dated 2016)

Tested on: EAAT2
Test: EAAT2 protein levels in PA-EAAT2 cells by Western blot
Format: cell-based, human
Details: for Fold increase for EAAT2, 4 h / Fold increase for EAAT2, 24 h: compound 10 μM, PA-EAAT2 cells, relative to DMSO controls, na = not active; for Fold increase for EAAT2, 4 h: 4 h incubation; for Fold increase for EAAT2, 24 h: 24 h incubation; for SAR comparison of activity on EAAT2 protein levels, in words: relative to parent/comparator analogue, Tables 1-4
Protocol: All of the derivates of 1 were initially evaluated in PA-EAAT2 cells^3 (a primary astrocyte line stably expressing EAAT2 mRNAs) following compound (10 μM) incubation for 4 and 24 h before harvesting and measuring EAAT2 levels by Western blot analysis. The fold increases in EAAT2 protein levels relative to DMSO controls are reported (Tables 1-4).
Characterization and efficacy studies of a compound, Compound 212320 (FIG. 6A) is shown. […] In the absence of serum, PA-EAAT2 cells express low amounts of EAAT2 protein, although the recombinant EAAT2 mRNA are expressed (translational silencing); however, EAAT2 protein levels are increased when an activator is added to the culture (translational activation). This cell line was used for high-throughput screening to identify EAAT2 translational activators. To prioritize candidate compounds, we initially evaluated activation of EAAT2 protein in PA-EAAT2 cells. Promising compounds were further evaluated in primary dissociated neuron and astrocyte mixed cultures and then in mice. FIG. 6 presents the characterization of Compound 212320 in PA-EAAT2 cells. Compound 212320 increased EAAT2 protein levels in a dose—(FIG. 6B) and time—(FIG. 6C) dependent manner. Importantly, the induction occurred in a short amount of time (within 1-2 hr) and was sustained even up to 72 hr (data not show). Additionally, induction occurred at low nanomolar concentrations. […] (FIG. 6D).

| Structure (SMILES) | Fold increase for EAAT2, 4 h [fold] | Fold increase for EAAT2, 24 h [fold] | SAR comparison of activity on EAAT2 protein levels, in words |
| --- | --- | --- | --- |
| Fc1ccc(CSc2ccc(-c3ccccn3)nn2)c(Cl)c1 [Compound 7-35] | 1.6 ± 0.6 | 1.7 ± 0.4 | – |
| Cc1ccccc1CCSc1ccc(-c2ccccn2)nn1 [Compound 7-32] | 1.2 ± 0.3 | 2.8 ± 0.4 | exception |
| Clc1ccc(Cl)c(CSc2ccc(-c3ccccn3)nn2)c1 [Compound 7-20] | 1.4 ± 0.1 | 2.5 ± 0.4 | equivalent to 1 |
| Fc1cccc(Cl)c1COc1ccc(-c2ccccn2)nn1 [Compound 8-2] | 1.1 ± 0.3 | 2.9 ± 0.4 | – |
| Sc1ccc(-c2ccccn2)nn1 [Compound 6-1] | – | 2.0 ± 0.8 | essentially the same potency as 1 |
| Clc1ccccc1CCSc1ccc(-c2ccccn2)nn1 [Compound 7-31] | 1.7 ± 0.2 | 4.8 ± 0.6 | more potent |
| Fc1cccc(Cl)c1CSc1ccc(-c2ccncc2)nn1 [Compound 7-2] | – | 1.9 ± 0.9 | reduced activity |
| Cc1ccccc1COc1ccc(-c2ccccn2)nn1 [Compound 8-1] | 2.0 ± 0.9 | 2.5 ± 0.5 | – |
| Cc1ccc(CSc2ccc(-c3ccccn3)nn2)cc1 [Compound 7-28] | – | – | less potent |
